The source of these data is PMC9059125 (Journal of Medicinal Chemistry, 2022).

Structures are written as SMILES. Where two headings read alike, the source gives them in different places. Where a SMILES comes first, the peptide text is derived from it. A value given as a limit tells only on which side of the number the result lay.

For orientation: half-life means the time in which the quantity being followed falls by half. Read a high half-life as slow loss. For orientation: EC50 means the concentration at which the effect is half-maximal.

The conditions of data set [1]: simulated gi fluid; cited from earlier work.
The conditions of data set [2]: simulated gi fluid, pH 6.8.
For data set [3] the following is noted: simulated gi fluid, pH 1.2.
Data set [4] concerns the target T1, human oxytocin receptor (OTR) (Homo sapiens, UniProt P30559).
T1 construct: NIMH PDSP (data provider)
T1 sequence (P30559 1-389): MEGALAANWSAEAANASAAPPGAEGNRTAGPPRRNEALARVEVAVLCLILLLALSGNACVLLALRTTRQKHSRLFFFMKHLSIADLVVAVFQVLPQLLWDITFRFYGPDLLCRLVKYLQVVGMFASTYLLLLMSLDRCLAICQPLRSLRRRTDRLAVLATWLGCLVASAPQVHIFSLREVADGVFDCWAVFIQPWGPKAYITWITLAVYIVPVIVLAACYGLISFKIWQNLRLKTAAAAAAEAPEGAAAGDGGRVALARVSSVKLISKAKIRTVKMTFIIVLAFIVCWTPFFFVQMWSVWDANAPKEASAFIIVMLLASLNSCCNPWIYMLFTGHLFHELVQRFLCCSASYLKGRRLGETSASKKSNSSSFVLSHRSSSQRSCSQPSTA
Conditions: cited from earlier work.

Data set [5] concerns the target T1, human oxytocin receptor (OTR). The following applies: cited from earlier work. This is another data set of the same source.
A short description of data set [6]: in vitro. The following applies: pig, simulated gi fluid, pH 6.8.
The target in another data set is T2, hOTR (Homo sapiens, UniProt P30559).
T2 construct: expressed in transfected cells; host or cells: COS-1 cells (ATCC), transient transfection with FuGENE HD
T2 sequence (P30559 1-389): T1 sequence (P30559 1-389)
The experiment in a line: cell-based.

Data set [7] in a line: in vitro. The following applies: pig, simulated gi fluid, pH 1.2, t1/2 SGF.
The test system of another data set is OTR. Conditions: cited from earlier work.

Take `NC(=O)CC[C@@H]1NC(=O)[C@H](Cc2ccccc2)NC(=O)[C@H](Cc2ccc(O)cc2)NC(=O)CCSSC[C@@H](C(=O)N2CCC[C@H]2C(=O)N[C@H](CCCN=C(N)N)C(=O)NCC(N)=O)NC(=O)[C@H](CC(N)=O)NC1=O` [Desmopressin]: the “reported t1/2 in SIF” value in data set [1] was 0.5 h.

With `C[C@@H]1NC(=O)[C@@H]2CCCN2C(=O)[C@H](CC(N)=O)NC(=O)[C@@H]2CSSC[C@H](N)C(=O)N[C@H]3CSSC[C@H](NC1=O)C(=O)N[C@@H]([C@@H](C)O)C(=O)NCC(=O)N[C@H](C(=O)N[C@@H](Cc1ccc(O)cc1)C(=O)O)CSSC[C@H](NC(=O)[C@H](Cc1ccc(O)cc1)NC(=O)[C@H](CCC(=O)O)NC3=O)C(=O)N2` [Linaclotide] (HELM PEPTIDE1{C.C.E.Y.C.C.N.P.A.C.T.G.C.Y}$PEPTIDE1,PEPTIDE1,1:R3-6:R3|PEPTIDE1,PEPTIDE1,2:R3-10:R3|PEPTIDE1,PEPTIDE1,5:R3-13:R3$$$V2.0), the “t1/2 SIF” value in data set [2] (pig) is 0.9 ± 0.05 h. Further, in data set [1], the “reported t1/2 in SIF” value is 0.267 h. In addition, the “t1/2 SGF” value in [3] is listed as above 24 h.

`CC[C@H](C)[C@@H]1NC(=O)[C@H](Cc2ccc(O)cc2)NC(=O)[C@@H](N)CSSC[C@@H](C(=O)N2CCC[C@H]2C(=O)N[C@@H](CC(C)C)C(=O)N(C)CC(N)=O)NC(=O)[C@H](CC(N)=O)NC(=O)[C@H](CCC(N)=O)NC1=O` [(Nα-Me)G^9OT]: the “reduced potency compared to native OT” value in data set [4] is around 10 fold. The “t1/2 SIF” value in data set [2] (pig) is on record as 2.9 ± 0.1 h.

As for `CC[C@@H](C)[C@H]1NC(=O)[C@@H](CCC(N)=O)NC(=O)[C@@H](CC(N)=O)NC(=O)[C@H](NC(=O)[C@H]2CCCN2C(=O)[C@@H](CC(C)C)NC(=O)CN)CSSC[C@H](C(N)=O)NC(=O)[C@@H](Cc2ccc(O)cc2)NC1=O` [all-D-retroinverse-OT], the “activity at the OTR (in words)” value in data set [5] is “inactive”. The half-life in “in vitro [6]” was above 24 h.

In the case of `CC[C@H](C)[C@@H]1NC(=O)[C@H](Cc2ccc(O)cc2)NC(=O)[C@@H]2CSSC[C@@H]3NC(=O)[C@H]([C@@H](C)CC)NC(=O)[C@@H]4CCCN4C(=O)[C@H](Cc4c[nH]c5ccccc45)NC(=O)[C@H](CO)NC(=O)[C@@H]4CSSC[C@H](NC(=O)[C@H]([C@@H](C)O)NC(=O)[C@H](CCC(=O)O)NC(=O)CNC(=O)[C@H](CSSC[C@H](NC(=O)[C@H](CC(N)=O)NC(=O)[C@H]([C@@H](C)O)NC1=O)C(=O)N[C@@H]([C@@H](C)O)C(=O)N4)NC(=O)[C@H](C(C)C)NC(=O)[C@@H]1CCCN1C(=O)[C@H](CC(C)C)NC(=O)CNC(=O)[C@H](CC(N)=O)NC(=O)[C@H](CCCNC(=N)N)NC(=O)[C@H](CCCCN)NC3=O)C(=O)N[C@@H]([C@@H](C)O)C(=O)N[C@@H](CC(C)C)C(=O)NCC(=O)N[C@@H]([C@@H](C)O)C(=O)N2` [KB7(T^4G^7OT^[2-5])], the “t1/2 SIF” value in [2] is above 24 h. The molecule also yielded an EC50 at hOTR above 10 µM.

For the molecule `CC[C@H](C)[C@@H]1NC(=O)[C@@H]2CCCN2C(=O)[C@@H]2CCCN2C(=O)[C@H]([C@@H](C)CC)NC(=O)[C@H](CO)NC(=O)[C@H](CCCCN)NC(=O)[C@H]([C@@H](C)O)NC(=O)[C@@H]2CSSC[C@H](NC1=O)C(=O)N[C@@H](Cc1ccccc1)C(=O)N1CCC[C@H]1C(=O)N[C@@H](CC(=O)O)C(=O)NCC(=O)N[C@@H](CCCNC(=N)N)C(=O)N2` [SFTI-1], the half-life was above 24 h in the data set “in vitro [7]” and 16.3 ± 2.7 h in the data set “in vitro [6]”.

With `CC[C@H](C)[C@@H]1NC(=O)[C@@H]2CCCN2C(=O)[C@H](Cc2c[nH]c3ccccc23)NC(=O)[C@H](CO)NC(=O)[C@@H]2CSSC[C@@H]3NC(=O)[C@H]([C@@H](C)O)NC(=O)[C@H](CCC(=O)O)NC(=O)CNC(=O)[C@@H]4CSSC[C@H](NC(=O)CNC(=O)[C@H](CCC(N)=O)NC(=O)[C@H]([C@@H](C)O)NC(=O)[C@H](Cc5ccc(O)cc5)NC(=O)[C@H](CSSC[C@H](NC1=O)C(=O)N[C@@H](CCCCN)C(=O)N[C@@H](CCCNC(=N)N)C(=O)N[C@@H](CC(N)=O)C(=O)NCC(=O)N[C@@H](CC(C)C)C(=O)N1CCC[C@H]1C(=O)N[C@@H](C(C)C)C(=O)N4)NC(=O)[C@H]([C@@H](C)O)NC(=O)CNC(=O)[C@H](CC(C)C)NC(=O)[C@H]([C@@H](C)O)NC3=O)C(=O)N[C@@H]([C@@H](C)O)C(=O)N2` [Kalata B7], in the data set on OTR, the “agonistic activity at the OTR (in words)” value is given as “weak inherent agonistic activity”. Further, the “t1/2 SIF” value in data set [2] was above 24 h. For the same molecule, in data set [3], the “t1/2 SGF” value is on record as above 24 h.
